According to PMC10636135, “Computational design of highly efficient thermostable MHET hydrolases and dual enzyme system for PET recycling” (Communications Biology, 2023):

Columns and labels:
[1] = target: T1, 1EVQ (thermostable scaffold) (Alicyclobacillus acidocaldarius, UniProt Q7SIG1); test: relative MHET hydrolysis activity; format: biochemical; conditions: 4.8 mM MHET, 0.25 μM enzyme, 50 mM sodium phosphate, pH 7.5, 50 °C, 10 min
T1 construct: synthesized codon-optimized gene, pET-22b(+), E. coli BL21(DE3); named only by PDB code

[2] = system: T2, KL36F (fusion of KL-MHETase and FAST-PETase); test: initial rates, TPA by HPLC, Michaelis-Menten fit; format: biochemical, Geobacillus stearothermophilus; conditions: 50 mM sodium phosphate, pH 7.5, 50 °C
T2 construct: gene est; order judged from name; FAST-PETase moiety also hydrolyses MHET weakly; with Poly(ethylene terephthalate) hydrolase

Q: How did the relative activity [1] turn out when `O=C(O)c1ccc(C(=O)OCCO)cc1` [MHET] was run?
A: The relative activity was 1EVQ and 1TQH, exhibited apparent activity with regard to MHET hydrolysis.

Q: And the Km [2]?
A: Its Km is 4.52 ± 0.67 mM.
